From patent US20250205259A1, “CLASS OF 7-((FIVE-MEMBERED HETEROCYCLIC)METHYL)-8-CARBOXYLIC ACID-BENZO CYCLIC BORATE DERIVATIVES AND USES THEREOF” (priority 2022, published 2025)
Where two headings read alike, the source gives them in different places.

Columns and labels:
Type in all cases: biochemical
[1] = target: KPC-2 (Klebsiella pneumoniae, UniProt Q9F663); assay: Inhibitory activity on SBL, fluorescent substrate FC-5
[2] = target: OXA-48 (Klebsiella pneumoniae, UniProt Q6XEC0); assay: as above
Sequence of OXA-48 (Q6XEC0 23-265 limits assumed): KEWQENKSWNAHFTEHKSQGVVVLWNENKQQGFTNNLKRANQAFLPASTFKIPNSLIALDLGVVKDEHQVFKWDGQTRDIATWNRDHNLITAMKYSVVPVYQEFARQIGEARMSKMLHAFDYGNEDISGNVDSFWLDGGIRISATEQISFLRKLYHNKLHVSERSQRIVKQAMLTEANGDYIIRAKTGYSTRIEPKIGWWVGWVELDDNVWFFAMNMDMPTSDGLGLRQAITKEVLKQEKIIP

[3] = target: NDM-1 (Klebsiella pneumoniae, UniProt C7C422); assay: Inhibitory activity on MBL, fluorescent substrate FC-5
Sequence of NDM-1 (C7C422 29-270 limits assumed): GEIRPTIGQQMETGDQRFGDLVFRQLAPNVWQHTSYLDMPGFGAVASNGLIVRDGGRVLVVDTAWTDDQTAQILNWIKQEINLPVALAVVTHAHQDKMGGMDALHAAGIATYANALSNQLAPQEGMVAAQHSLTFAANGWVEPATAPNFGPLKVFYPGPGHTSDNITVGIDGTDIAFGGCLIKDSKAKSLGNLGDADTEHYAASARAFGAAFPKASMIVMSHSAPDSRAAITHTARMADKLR

[4] = target: NDM-5 (Klebsiella pneumoniae, UniProt C7C422, M154L/V88L); assay: as above
Sequence of NDM-5 (C7C422 29-270 V88L/M154L): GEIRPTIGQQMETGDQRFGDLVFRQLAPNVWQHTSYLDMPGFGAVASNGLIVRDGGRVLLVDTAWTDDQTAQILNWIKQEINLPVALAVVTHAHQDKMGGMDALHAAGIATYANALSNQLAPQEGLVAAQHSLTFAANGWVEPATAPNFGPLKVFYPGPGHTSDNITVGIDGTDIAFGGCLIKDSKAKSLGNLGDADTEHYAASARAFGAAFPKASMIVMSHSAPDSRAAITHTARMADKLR

[5] = target: IMP-1 (Serratia marcescens, UniProt P52699); assay: as above
Sequence of IMP-1 (P52699 19-246 limits assumed): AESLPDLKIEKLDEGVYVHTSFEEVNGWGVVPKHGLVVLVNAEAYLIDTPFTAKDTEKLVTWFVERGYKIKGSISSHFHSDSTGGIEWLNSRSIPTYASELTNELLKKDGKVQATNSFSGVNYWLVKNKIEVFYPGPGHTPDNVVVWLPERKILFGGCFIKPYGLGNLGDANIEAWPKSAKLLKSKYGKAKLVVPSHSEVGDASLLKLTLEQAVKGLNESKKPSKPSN

[6] = target: VIM-1 (Pseudomonas aeruginosa, UniProt A0A0F7KYQ8); assay: as above
[7] = target: VIM-2 (Escherichia coli, UniProt Q5U7L7); assay: as above
[8] = target: TEM-1 (Escherichia coli, UniProt P62593); assay: Inhibitory activity on SBL, fluorescent substrate FC-5; conditions: read-out: Inhibitory activity on SBL TEM-1 (IC50 class)
Sequence of TEM-1 (P62593 24-286 limits assumed): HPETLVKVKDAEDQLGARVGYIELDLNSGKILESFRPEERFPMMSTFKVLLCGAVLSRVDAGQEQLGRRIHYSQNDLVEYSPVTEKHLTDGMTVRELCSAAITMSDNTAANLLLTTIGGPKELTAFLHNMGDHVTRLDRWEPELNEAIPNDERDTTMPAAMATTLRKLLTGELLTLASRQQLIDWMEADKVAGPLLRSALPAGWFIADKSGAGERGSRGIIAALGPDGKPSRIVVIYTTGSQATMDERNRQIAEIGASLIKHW

[9] = target: CTX-M-14 (Escherichia coli, UniProt Q9L5C7); assay: as above
Sequence of CTX-M-14 (Q9L5C7 entry or part of it): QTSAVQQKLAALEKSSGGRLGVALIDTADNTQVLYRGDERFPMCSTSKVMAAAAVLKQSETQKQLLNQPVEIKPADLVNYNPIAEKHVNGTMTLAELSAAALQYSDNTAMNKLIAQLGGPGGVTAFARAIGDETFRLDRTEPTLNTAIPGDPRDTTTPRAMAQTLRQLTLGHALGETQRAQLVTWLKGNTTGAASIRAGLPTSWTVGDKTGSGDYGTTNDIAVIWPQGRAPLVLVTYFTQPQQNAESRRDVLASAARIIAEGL

[10] = salts, read-out: inhibitory activity at a nanomolar-level on KPC-2
[11] = salts, read-out: inhibitory activity at a nanomolar-level on OXA-48
[12] = read-out: Inhibitory activity on SBL KPC-2 (IC50 class)
[13] = read-out: Inhibitory activity on MBL NDM-1 (IC50 class)
[14] = read-out: Inhibitory activity on MBL NDM-5 (IC50 class)
[15] = read-out: Inhibitory activity on MBL IMP-1 (IC50 class)
[16] = read-out: Inhibitory activity on MBL VIM-1 (IC50 class)
[17] = read-out: Inhibitory activity on MBL VIM-2 (IC50 class)
[18] = read-out: Inhibitory activity on SBL CTX-M-14 (IC50 class)
[19] = read-out: Inhibitory activity on SBL OXA-48 (IC50 class)
[20] = VIM-1 and/or VIM-2, read-out: inhibitory activity at a nanomolar-level on VIM-1 and/or VIM-2
[21] = IMP-1 and/or IMP-4, read-out: inhibitory activity at a nanomolar-level on IMP-1 and/or IMP-4
[22] = read-out: inhibitory activity at a nanomolar-level on NDM-1
[23] = read-out: inhibitory activity at a nanomolar-level on NDM-5

Sequence of KPC-2 (Q9F663 25-293 limits assumed): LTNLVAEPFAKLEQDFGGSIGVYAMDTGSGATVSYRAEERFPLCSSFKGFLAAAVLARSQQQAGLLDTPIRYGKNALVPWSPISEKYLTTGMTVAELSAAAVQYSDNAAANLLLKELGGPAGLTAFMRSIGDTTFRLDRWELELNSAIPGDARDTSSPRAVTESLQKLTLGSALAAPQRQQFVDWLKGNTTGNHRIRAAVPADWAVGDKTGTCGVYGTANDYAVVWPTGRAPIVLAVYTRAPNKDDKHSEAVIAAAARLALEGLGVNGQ

| SMILES | IC50 [1, 10] [µM] | IC50 [1, 12] [µM] | IC50 [3, 13] [µM] | IC50 [4, 14] [µM] | IC50 [5, 15] [µM] | IC50 [6, 16] [µM] | IC50 [7, 17] [µM] | IC50 [8] [µM] | IC50 [9, 18] [µM] | IC50 [2, 19] [µM] | also measured |
| --- | --- | --- | --- | --- | --- | --- | --- | --- | --- | --- | --- |
| NCc1cnn(Cc2ccc3c(c2C(=O)O)OB(O)CC3)c1 [21-phosphoric acid] | < 0.01 |  |  |  |  |  |  |  |  |  | IC50 [2, 11]: < 0.01 µM |
| NC1(c2cn(Cc3ccc4c(c3C(=O)O)OB(O)CC4)nn2)CC1 [41-propionic acid] | < 0.01 |  |  |  |  |  |  |  |  |  |  |
| NCCc1cnn(Cc2ccc3c(c2C(=O)O)OB(O)CC3)c1 [43-maleic acid] | < 0.01 |  |  |  |  |  |  |  |  |  |  |
| N=C(N)N1Cc2cn(Cc3ccc4c(c3C(=O)O)OB(O)CC4)nc2C1 [58-toluene sulfonic acid] | < 0.01 |  |  |  |  |  |  |  |  |  | IC50 [2, 11]: < 0.01 µM |
| NCCc1ccc(-c2cn(Cc3ccc4c(c3C(=O)O)OB(O)CC4)nn2)cc1 [63-tartaric acid] | < 0.01 | < 0.01 |  |  |  |  |  |  |  |  |  |
| N=C(N)NCc1ccc(-c2cn(Cc3ccc4c(c3C(=O)O)OB(O)CC4)nn2)cc1 [64-citric acid] | < 0.01 |  |  |  |  |  |  |  |  |  | IC50 [2, 11]: < 0.01 µM |
| O=C(O)c1c(Cn2ncc3c2CNC3)ccc2c1OB(O)CC2 [66-oxalic acid] | < 0.01 |  |  |  |  |  |  |  |  |  | IC50 [2, 11]: < 0.01 µM |
| NCc1cn(Cc2ccc3c(c2C(=O)O)OB(O)CC3)nn1 [Compound 7] |  | 0.01 to 1 | 1 to 100 | 1 to 100 | 1 to 100 | 1 to 100 | 1 to 100 | 0.01 to 1 | 0.01 to 1 | 0.01 to 1 |  |
| NCCc1cn(Cc2ccc3c(c2C(=O)O)OB(O)CC3)nn1 [Compound 8] |  | 0.01 to 1 | 1 to 100 | 0.01 to 1 | 1 to 100 | 1 to 100 | 0.01 to 1 | 0.01 to 1 | 0.01 to 1 | 0.01 to 1 | IC50 [6, 20]: < 1 µM |
| NCc1cnn(Cc2ccc3c(c2C(=O)O)OB(O)CC3)c1 [Compound 21] |  | < 0.01 |  |  |  |  |  |  |  | < 0.01 |  |
| O=C(O)c1c(Cn2nccn2)ccc2c1OB(O)C1CC21 (stereo not drawn) [Compound 27] |  |  |  | 1 to 100 |  |  |  | 0.01 to 1 |  |  | IC50 [3]: 1 to 100 µM; IC50 [5]: 1 to 100 µM; IC50 ([6]; Inhibitory activity on MBL VIM-1 (IC50 class)): 1 to 100 µM; IC50 ([6]; inhibitory activity at a nanomolar-level on VIM-1 and/or VIM-2, text summary, VIM-1 and/or VIM-2): < 1 µM; IC50 [7]: 0.01 to 1 µM; IC50 [1]: < 0.01 µM; IC50 [9]: 0.01 to 1 µM; IC50 ([2]; Inhibitory activity on SBL OXA-48 (IC50 class)): < 0.01 µM |
| O=C(O)c1c(Cn2ccnn2)ccc2c1OB(O)C1CC21 (stereo not drawn) [Compound 28] |  | < 0.01 | 1 to 100 | 1 to 100 | 0.01 to 1 | 0.01 to 1 | 0.01 to 1 | 0.01 to 1 | 0.01 to 1 | 0.01 to 1 | IC50 [5, 21]: < 1 µM; IC50 [6, 20]: < 1 µM |
| C[C@H]1Cc2ccc(Cn3ccnn3)c(C(=O)O)c2OB1O [Compound 29] |  | < 0.01 | 0.01 to 1 | 0.01 to 1 | 0.01 to 1 | 0.01 to 1 | 0.01 to 1 | 0.01 to 1 | 0.01 to 1 | 0.01 to 1 | IC50 [3, 22]: < 1 µM; IC50 [4, 23]: < 1 µM; IC50 [5, 21]: < 1 µM; IC50 [6, 20]: < 1 µM |
| CO[C@H]1Cc2ccc(Cn3ccnn3)c(C(=O)O)c2OB1O [Compound 30] |  | < 0.01 | 0.01 to 1 | 0.01 to 1 | 0.01 to 1 | 0.01 to 1 | 0.01 to 1 | 0.01 to 1 | 0.01 to 1 | 0.01 to 1 | IC50 [3, 22]: < 1 µM; IC50 [4, 23]: < 1 µM; IC50 [5, 21]: < 1 µM; IC50 [6, 20]: < 1 µM |
| NCCNc1cnn(Cc2ccc3c(c2C(=O)O)OB(O)CC3)c1 [Compound 33] |  | < 0.01 | 0.01 to 1 | 0.01 to 1 | 1 to 100 | 1 to 100 | 0.01 to 1 | 0.01 to 1 | 0.01 to 1 | < 0.01 | IC50 [3, 22]: < 1 µM; IC50 [4, 23]: < 1 µM |
| N=C(N)NCc1cnn(Cc2ccc3c(c2C(=O)O)OB(O)CC3)c1 [Compound 37] |  | < 0.01 | 0.01 to 1 | 0.01 to 1 | 1 to 100 | 1 to 100 | 0.01 to 1 | < 0.01 | < 0.01 | < 0.01 | IC50 [3, 22]: < 1 µM; IC50 [4, 23]: < 1 µM |
